The values below come from article PMC3599355, “Discovery and characterization of a highly efficient enantioselective mandelonitrile hydrolase from Burkholderia cenocepacia J2315 by phylogeny-based enzymatic substrate specificity prediction” (BMC Biotechnology, 2013).

For this assay, the target named is T1, BCJ2315 (Burkholderia cenocepacia, UniProt B4E7T0).
T1 construct: gene BCAL2585; full-length gene in pQE30 (BamHI/HindIII), His-tag kept, E. coli M15; 37 kDa subunit, native about 450 kDa, 12 identical subunits
In words: HPLC hydrolysis assay, Lineweaver-Burk. The assay is classed as biochemical. Conditions: standard assay: 100 mM sodium phosphate pH 7.0, 30 °C; mandelonitrile 0.1 to 15 mM; stereo form not stated.

The term Km denotes the concentration of substrate that gives half-maximal velocity.

T1 sequence (B4E7T0 entry or part of it): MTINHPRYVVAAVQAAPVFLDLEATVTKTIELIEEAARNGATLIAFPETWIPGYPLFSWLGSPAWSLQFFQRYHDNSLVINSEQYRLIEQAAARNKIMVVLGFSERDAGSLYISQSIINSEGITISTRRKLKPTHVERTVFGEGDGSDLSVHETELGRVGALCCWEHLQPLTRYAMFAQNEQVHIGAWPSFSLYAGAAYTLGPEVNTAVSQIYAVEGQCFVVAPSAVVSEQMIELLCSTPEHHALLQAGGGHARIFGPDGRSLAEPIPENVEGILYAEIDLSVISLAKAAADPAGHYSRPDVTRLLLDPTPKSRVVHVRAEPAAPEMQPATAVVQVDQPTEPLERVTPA

`N#CC(O)c1ccccc1` (stereo not shown) [mandelonitrile]: the Km was found to be 140 µM.
